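Five concentrations, 48 hours, 96-well plates. Abbreviation: GI50, concentration required for 50% inhibition of growth. TGI marks complete inhibition of growth.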
Key:
Experiment in all cases: growth of human tumour cells (NCI), 48 h
EKVX NSCLC = tested on: EKVX NSCLC
HCC-2998 colon = tested on: HCC-2998 colon
HOP-62 NSCLC = tested on: HOP-62 NSCLC
MALME-3M melanoma = tested on: MALME-3M melanoma
MDA-N = tested on: MDA-N
MOLT-4 leukemia = tested on: MOLT-4 leukemia
NCI-H226 lung = tested on: NCI-H226 lung
NCI/ADR-RES ovarian = tested on: NCI/ADR-RES ovarian
OVCAR-3 ovarian = tested on: OVCAR-3 ovarian
OVCAR-5 ovarian = tested on: OVCAR-5 ovarian
RPMI-8226 leukemia = tested on: RPMI-8226 leukemia
SK-MEL-5 melanoma = tested on: SK-MEL-5 melanoma
SN12C renal = tested on: SN12C renal
SNB-19 CNS = tested on: SNB-19 CNS
SW-620 colon = tested on: SW-620 colon
CAKI-1 renal = tested on: CAKI-1 renal

Compound | TGI (EKVX NSCLC) | TGI (HCC-2998 colon) | TGI (HOP-62 NSCLC) | TGI (MALME-3M melanoma) | TGI (MDA-N) | TGI (MOLT-4 leukemia) | TGI (NCI-H226 lung) | TGI (NCI/ADR-RES ovarian) | TGI (OVCAR-3 ovarian) | TGI (OVCAR-5 ovarian) | TGI (RPMI-8226 leukemia) | TGI (SK-MEL-5 melanoma) | TGI (SN12C renal) | TGI (SNB-19 CNS) | TGI (SW-620 colon) | TGI (CAKI-1 renal) | GI50 (OVCAR-3 ovarian)
CCOC(=O)CSc1nnc(C(Sc2nc(-c3ccccc3)c(-c3ccccc3)[nH]2)C(C)C)n1-c1ccccc1 (stereo not given) | > 31.6 µM | 43.5 µM | > 10 µM | 28.3 µM | > 100 µM | 50 µM | 26 µM | 84 µM | > 10 µM | 28.5 µM | > 86.9 µM | > 10 µM | 26.1 µM | > 31.6 µM | > 31.6 µM |  | 
COc1cc2c(cc1OC)C1(c3ccc(Cl)cc3)ON=C(c3ccccc3)N1CS2 (stereo not given) | > 100 µM | > 100 µM | > 100 µM | > 100 µM |  | > 100 µM | > 100 µM |  | > 100 µM | > 100 µM | > 100 µM | > 100 µM | > 100 µM | > 100 µM | > 100 µM | > 100 µM | 
CCC[C@H](C)C[C@H](C)C[C@H](C)/C=C(\C)[C@@H](O)[C@@H](C)C(=O)CC | 34.7 µM | 31.2 µM | 35.2 µM | 33.6 µM |  | 43.3 µM | 42.6 µM | 30.9 µM | 34.4 µM | 34.1 µM | 49 µM | 36.1 µM | 35.5 µM | 36.1 µM | 43 µM | 37.4 µM | 
CCCc1ccc(NCc2cc(OC)c(OC)c(OC)c2)cc1 | > 100 µM |  | > 100 µM | 50.4 µM |  | 66.2 µM |  |  | 54.4 µM | > 100 µM | 37 µM | 32.5 µM | 53.2 µM | > 100 µM |  |  | 19 µM
CC(NC(C)(C)C)C(=O)c1cccc(Cl)c1 (stereo not given) | > 100 µM | > 100 µM | > 100 µM | > 100 µM |  | > 100 µM |  |  | > 100 µM |  | > 100 µM | > 100 µM | > 100 µM |  | > 100 µM | > 100 µM | 
Cc1ccc(N=Nc2c(O)c(C(=O)Nc3ccccc3)cc3ccccc23)c([N+](=O)[O-])c1 | > 100 µM |  | > 100 µM | > 100 µM | > 100 µM | > 100 µM |  | > 100 µM | > 100 µM | > 100 µM | > 100 µM | > 100 µM | > 100 µM | > 100 µM | > 100 µM | > 100 µM | 
COc1ccc2oc(=N)c(C(=O)Nc3ccccn3)cc2c1 | > 100 µM | > 100 µM | > 100 µM | > 100 µM |  | > 100 µM | > 100 µM | > 100 µM | > 100 µM | > 100 µM | > 100 µM | > 100 µM | > 100 µM | > 100 µM | > 100 µM | > 100 µM | 
C/C(=C/CC[C@]1(CO)CC[C@]2(CO)[C@H](CC[C@@H]3[C@@]4(C)CC[C@H](OC5OCC(O)C(O)C5OC5OC(CO)C(O)C(O)C5O)C(C)(C)[C@@H]4CC[C@]32C)[C@H]1O)CO (stereo not given in full) | > 100 µM |  | > 100 µM | > 100 µM | > 100 µM | > 100 µM | > 100 µM | > 100 µM | > 100 µM | > 100 µM | > 100 µM | > 100 µM | > 100 µM | > 100 µM | > 100 µM | > 100 µM | 
O=C(CC(=O)Nc1ccccc1)N/N=C/c1cc(N=Nc2ccc(Br)cc2)ccc1O | > 10 µM | > 10 µM | > 10 µM | > 10 µM | > 10 µM | > 10 µM |  | > 10 µM |  |  | > 10 µM | > 10 µM | > 10 µM |  | > 10 µM | > 10 µM | 
CNc1ccc(N)cc1C(=O)N1CCC[C@H]1CO | > 100 µM |  | > 100 µM | > 100 µM | > 100 µM | > 100 µM | > 100 µM | > 100 µM |  | > 100 µM |  | > 100 µM | > 100 µM | > 100 µM | > 100 µM | > 100 µM | 
Nc1ccc(C(=O)NN2C(=O)C(Cl)C2c2ccccc2)cc1 (stereo not given) | > 100 µM | > 100 µM | > 100 µM | > 100 µM |  | > 100 µM | > 100 µM |  | > 100 µM | > 100 µM | > 100 µM | > 100 µM | > 100 µM | > 100 µM | > 100 µM | > 100 µM | 
O=C(CSC1=NCCN1)Nc1ccccc1 | > 100 µM | 63.1 µM | > 100 µM | 60 µM | 59 µM | > 100 µM |  | 73.6 µM | 51.4 µM | > 100 µM | > 100 µM |  | 41.1 µM | > 100 µM | > 100 µM | > 100 µM | 
O=C(Cc1ccccc1)NN1C(=O)C(Cl)C1c1ccccc1O (stereo not given) | 26.7 µM | > 100 µM | > 100 µM | 86.1 µM |  | > 100 µM | 52.5 µM |  | > 100 µM | > 100 µM | > 100 µM |  | > 100 µM | 82 µM | > 100 µM | > 100 µM | 
O=C(O)CNC(=O)c1c2ccccc2nc2ccccc12 | > 100 µM | > 100 µM | > 100 µM | > 100 µM |  | > 100 µM | > 100 µM | > 100 µM | > 100 µM | > 100 µM | > 100 µM | > 100 µM | > 100 µM | > 100 µM | > 100 µM | > 100 µM | 
CC(C)CN=C(N)N=C(N)N | > 100 µM | > 100 µM | > 100 µM | > 100 µM | > 100 µM | > 100 µM | > 100 µM | > 100 µM | > 100 µM | > 100 µM | > 100 µM | > 100 µM | > 100 µM | > 100 µM | > 100 µM |  | 
Cc1nc(-c2ccc(N=Cc3ccc(N(CCOS(C)(=O)=O)CCOS(C)(=O)=O)cc3C)cc2)cs1 |  | > 100 µM | > 100 µM | > 100 µM | > 100 µM | > 100 µM | 28.3 µM | > 100 µM | > 100 µM | > 100 µM | > 100 µM | 38.5 µM | > 100 µM | > 100 µM | > 100 µM |  | 
